# Measurements reported in patent publication US7109360B1, “16-hydroxyestratrienes as selectively active estrogens” (priority 1999, dated 2006).
# Columns and labels:
# [1] = system: estrogen receptor preparations of rat prostates; assay: Competitive 3H-estradiol binding to estrogen receptor of rat prostate cytosol; conditions: for prost. ER/uterus ER: ratio RBA prostate-ER / RBA uterus-ER
# [2] = molecular target: T1, human estrogen receptor β (Homo sapiens, UniProt Q92731); assay: Binding to human estrogen receptor β produced by Baculovirus/SF-9 expression system; conditions: for hERβ RBA / ERβ/ERα: Table 2; for hERβ RBA: human ERβ from Baculovirus/SF-9, estradiol = 100; for ERβ/ERα: quotient RBA ERβ / RBA ERα
# T1 construct: made in house; host or cells: Baculovirus/SF-9
# T1 sequence (Q92731 whole entry): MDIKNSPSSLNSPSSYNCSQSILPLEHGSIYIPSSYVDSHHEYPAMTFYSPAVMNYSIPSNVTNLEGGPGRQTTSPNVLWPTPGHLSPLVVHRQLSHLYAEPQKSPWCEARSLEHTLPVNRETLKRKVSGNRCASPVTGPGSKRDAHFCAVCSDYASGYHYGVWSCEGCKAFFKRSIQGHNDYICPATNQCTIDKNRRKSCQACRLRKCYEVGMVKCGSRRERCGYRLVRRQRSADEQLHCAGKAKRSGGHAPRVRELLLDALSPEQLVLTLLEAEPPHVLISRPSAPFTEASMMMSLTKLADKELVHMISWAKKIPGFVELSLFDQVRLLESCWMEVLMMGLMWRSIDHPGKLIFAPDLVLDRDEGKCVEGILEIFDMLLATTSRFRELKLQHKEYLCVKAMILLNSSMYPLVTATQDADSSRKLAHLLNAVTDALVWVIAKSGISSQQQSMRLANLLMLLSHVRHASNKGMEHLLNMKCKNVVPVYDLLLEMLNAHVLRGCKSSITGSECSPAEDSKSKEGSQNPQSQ
# [3] = molecular target: T2, estrogen receptor preparations of rat uteri (Rattus norvegicus, UniProt P06211); assay: Competitive 3H-estradiol binding to estrogen receptor of rat uterus cytosol
# T2 construct: The preparation of rat uterus cytosol, as well as the receptor test with the ER-containing cytosol; from tissue; host or cells: rat uterus cytosol
# T2 sequence (P06211 1-600): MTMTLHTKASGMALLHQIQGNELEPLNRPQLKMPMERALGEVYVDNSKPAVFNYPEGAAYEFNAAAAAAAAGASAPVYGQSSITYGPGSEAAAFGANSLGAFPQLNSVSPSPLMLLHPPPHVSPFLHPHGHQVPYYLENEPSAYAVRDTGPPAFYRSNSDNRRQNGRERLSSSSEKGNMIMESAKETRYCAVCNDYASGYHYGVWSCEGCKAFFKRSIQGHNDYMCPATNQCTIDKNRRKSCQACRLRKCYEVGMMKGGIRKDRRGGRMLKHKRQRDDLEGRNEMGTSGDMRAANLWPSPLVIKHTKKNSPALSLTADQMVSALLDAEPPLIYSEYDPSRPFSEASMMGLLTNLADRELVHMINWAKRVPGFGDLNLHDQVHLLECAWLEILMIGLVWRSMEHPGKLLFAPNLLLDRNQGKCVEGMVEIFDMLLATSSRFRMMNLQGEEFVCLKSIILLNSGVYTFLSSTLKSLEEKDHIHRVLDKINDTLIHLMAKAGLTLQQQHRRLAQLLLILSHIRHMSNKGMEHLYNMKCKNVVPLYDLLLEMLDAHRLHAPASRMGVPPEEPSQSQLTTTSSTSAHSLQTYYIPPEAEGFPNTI
# [4] = molecular target: T3, human estrogen receptor α (Homo sapiens, UniProt P03372); assay: Binding to human estrogen receptor α produced by Baculovirus/SF-9 expression system; conditions: Table 2; human ERα from Baculovirus/SF-9, estradiol = 100
# T3 construct: made in house; host or cells: Baculovirus/SF-9
# T3 sequence (P03372 1-595): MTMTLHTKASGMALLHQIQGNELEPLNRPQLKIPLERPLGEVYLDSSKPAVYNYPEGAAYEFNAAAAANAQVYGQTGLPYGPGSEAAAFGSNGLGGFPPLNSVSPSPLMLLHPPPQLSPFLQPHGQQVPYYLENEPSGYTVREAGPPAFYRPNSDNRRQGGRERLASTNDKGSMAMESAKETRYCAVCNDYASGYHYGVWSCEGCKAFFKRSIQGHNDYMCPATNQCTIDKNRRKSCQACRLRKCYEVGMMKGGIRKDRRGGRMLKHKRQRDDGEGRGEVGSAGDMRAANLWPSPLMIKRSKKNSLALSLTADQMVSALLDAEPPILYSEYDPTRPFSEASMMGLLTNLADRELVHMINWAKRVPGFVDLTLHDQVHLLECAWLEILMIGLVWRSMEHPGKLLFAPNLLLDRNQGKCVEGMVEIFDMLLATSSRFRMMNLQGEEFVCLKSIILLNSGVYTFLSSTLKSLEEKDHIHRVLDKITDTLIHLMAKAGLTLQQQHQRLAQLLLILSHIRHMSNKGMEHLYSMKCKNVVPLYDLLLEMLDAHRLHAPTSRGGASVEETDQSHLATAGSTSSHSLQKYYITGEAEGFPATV
# hERβ [5] = assay: Relative binding affinity to hERβ, cited from Kuiper et al.; design: species or system human; conditions: Table 1; quotient of cited RBA hERβ / hERα
# Source text: In this case, it is assumed that ERβ predominates in the rat prostates over ERα, and ERα predominates in rat uteri over ERβ.
# hERβ [6] = conditions: Table 1; estradiol = 100; cited from Kuiper et al. (1996); cited from earlier work
# [7] = system: uterus of ovariectomized female rats; assay: Bone studies: uterus stimulation (uterus weight) in ovariectomized rats; type: in vivo, rat; conditions: s.c. once daily for 28 days
# Protocol: (§1) Three-month-old female rats are ovariectomized and treated once daily with the test compound immediately after the operation for 28 days. The administration is carried out subcutaneously in arachis oil/ethanol. The animals are sacrificed on the day after the last administration, and tibia as well as uteri are removed. The uteri are weighed, fixed and worked up for histological studies. The determination of bone density is carried out ex vivo on prepared long bones by means of pQCT (quantitative computer tomography). The measurements are made at a distance of 4–6 mm from the ball of the joint of the proximal tibia.
# (§2) Estra-1,3,5(10)-triene-3,16α-diol reflects this in vivo in the greatly different amounts, which produce a 50% bone protection [3 μg/animal] or a 50% uterus stimulation [30 μg/animal], relative to the bone mass loss, which can be measured in ovariectomized, untreated female rats 28 days after the ovariectomy unlike in intact animals that are subjected to sham operations.
# [8] = system: trabecular bone density in ovariectomized female rats; assay: Bone studies: bone density of proximal tibia (pQCT) in ovariectomized rats; type: in vivo, rat; conditions: s.c. once daily for 28 days, relative to bone mass loss of untreated ovariectomized vs sham-operated animals
# Protocol: as §1
# The ovariectomy reduces the density of the trabecular bone in the measured area by about 400 mg of Ca^2+/cm^3 to about 300 mg of Ca^2+/cm^3. By treatment with a compound of general formula I according to this invention, the degradation of the bone density is prevented or inhibited. The bone density in the proximal tibia was measured.
# as §2
# [9] = Table 1, 3H-estradiol as ligand, estradiol = 100
Structure (SMILES),hERβ RBA [2],"Rat prost. ER (RBA) ([1]; Table 2, estradiol = 100)",prost. ER/uterus ER ([1]; Table 2),ERβ/ERα [2],"Rat uterus ER (RBA) ([3]; Table 2, estradiol = 100)",hERα RBA [4],"Rat prost. ER (RBA) [1, 9]",further results
C[C@]12CC[C@@H]3c4ccc(O)cc4CC[C@H]3[C@@H]1C[C@@H](O)C2=O [16α-hydroxyestrone],,,,,,,,RBA value on rat prostate estrogen receptor relative to RBA value on rat uterus estrogen receptor [1]: five times better; binding to human estrogen receptor β relative to human estrogen receptor α [2]: three times better
O=c1oc2cc(O)ccc2c2oc3cc(O)ccc3c12 [Coumestrol],100,,,,,,,
C#C[C@@]1(O)C[C@@H]2CC[C@@H]3[C@H](CC[C@@]4(C)[C@H]3CC[C@@]4(O)C#C)[C@@]2(C)C1 [Anordiol],0.2,<0.01,<0.01,0.01,6.6,15,,
C[C@]12CC[C@@H]3c4ccc(O)cc4CC[C@H]3[C@@]13CC[C@]2(O)[C@H](O)C3 [Cyclotriol],10,17,0.3,0.3,50,36,,
C[C@]12CC[C@@H]3c4ccc(O)cc4CC[C@H]3[C@@H]1CC[C@H]2O [17α-Estradiol],,,,,,,1.3,
C[C@]12CC[C@H]3[C@@H](CC=C4C[C@@H](O)CC[C@@]43C)[C@@H]1CC[C@@H]2O [5-Androstenediol],10,5,50,6,0.1,1.7,5,"prost. ER/uterus ER ([1]; Table 1): 50; Rat uterus ER (RBA) [3, 9]: 0.1; ERβ/ERα (hERβ [5]): 3; hERβ RBA (hERβ [6]): 17"
O=c1c(-c2ccc(O)cc2)coc2cc(O)cc(O)c12 [Genisteine],,10,,,,,10,
C[C@]12CC[C@@H]3c4ccc(O)cc4CC[C@H]3[C@@H]1C[C@@H](O)[C@@H]2O [Estriol],,,,,,,,hERβ RBA (hERβ [6]): 21
"C[C@]12CC[C@@H]3c4ccc(O)cc4CC[C@H]3[C@@H]1C[C@@H](O)C2 [16α-Estradiol, estra-1,3,5(10)-triene-3,16α-diol]",,,,,,,,Rat prost. ER (RBA) ([1]; Table 3): 50; Receptor binding ERβ (RBA)/ERα (RBA) ([2]; Table 3): 6; 50% uterus stimulation [7]: 30 μg/animal; Rat uterus ER (RBA) ([3]; Table 3): 9; 50% bone protection [8]: 3 μg/animal
O=C(c1ccc(OCCN2CCCCC2)cc1)c1c(-c2ccc(O)cc2)sc2cc(O)ccc12 [Raloxifene],9,1.5,,,,,,
